Experimental data from patent US20200197533A1, “COMBINATION CANCER THERAPY USING CHIMERIC ANTIGEN RECEPTOR ENGINEERED NATURAL KILLER CELLS AS CHEMOTHERAPEUTIC DRUG CARRIERS” (priority 2017, published 2020).
“Also recorded” adds a separate entry of the source.

Tests used:
SKOV3 cells = assay: Cell viability (XTT) assay with cMLV(PTX); format: cell-based; details: various concentrations of cMLV(PTX), compared with NK cells
Method: (§1) NK92 and SKOV3 cells were seeded in 96-well plates at 2×10^4 cells per well in 10% FBS-containing media and grown at 37° C. in the presence of 5% CO2 for 6 hours. Cells were incubated with various concentrations of cMLV (PTX) as previously described (Liu, Y, et al (2014). Codelivery of doxorubicin and paclitaxel by cross-linked multilamellar liposome enables synergistic antitumor activity. Mol Pharm 11: 1651-1661) and cell viability was assessed using the Cell Proliferation Kit II (XTT assay) from Roche Applied Science (Indianapolis, Ind.) according to the manufacturer's instructions. Cell viability percentage was determined by subtracting absorbance values obtained from media-only wells from the treated wells and then normalized by the control wells containing cells without drugs.

NK92 cells = assay: Cell viability (XTT) assay with cMLV(PTX); format: cell-based, human; details: various concentrations of cMLV(PTX)
Method: as §1

lymphoma cells = details: drug-loaded nanocapsules conjugated to murine T cells; cited from earlier work
T cell carriers = details: drug-loaded nanocapsules conjugated to murine T cells; cited from earlier work

CC(=O)O[C@H]1C(=O)[C@@]2(C)[C@H]([C@H](OC(=O)c3ccccc3)[C@]3(O)C[C@H](OC(=O)[C@H](O)[C@@H](NC(=O)c4ccccc4)c4ccccc4)C(C)=C1C3(C)C)[C@]1(OC(C)=O)CO[C@@H]1C[C@@H]2O [PTX, paclitaxel]
cell viability of SKOV3 tumor cells exposed to PTX (SKOV3 cells): more sensitive to PTX; also recorded: can kill tumor cells | cell viability of NK92 carrier cells exposed to PTX (NK92 cells): not NK92 cells

CCc1c2c(nc3ccc(O)cc13)-c1cc3c(c(=O)n1C2)COC(=O)[C@]3(O)CC [SN-38]
killing of lymphoma cells (lymphoma cells): effectively killed lymphoma cells | toxicity to the T cell carriers (T cell carriers): not toxic to the T cell carriers
